We go through 1 molecule from US8101740B2, “Positron emission tomography probes for imaging immune activation and selected cancers” (The Regents of the University of California, priority 2007, dated 2012).

For test [1], the system named is L1210-10K cell line (lacking dCK). In words: radioactive tracer uptake assay, L1210-10K cells. It counts as cell-based, murine. From the text: To evaluate whether [^18F]D-FAC PET can determine resistance to gemcitabine and Ara-C, we used a previously described experimental model based on the L1210 murine leukemia cells and their gemcitabine/Ara-C resistant 10K derivatives^20. The molecular defect responsible for resistance in the L1210 10K cells is loss of dCK expression due to a genetic modification of chromosome 5 in the 3′ region of the dCK gene. The 10K cell line was derived by exposing the parental L1210 cells to increasing concentrations of gemcitabine^20; before experiments, we confirmed that L1210 10K cells lack expression of dCK at the protein level (FIG. 13). Thus, to determine whether D-FAC retention correlates with gemcitabine resistance in these cells, we performed radioactive tracer uptake assays using [^3H]D-FAC with [^3H]-FLT used as a negative control. We observed that the gemcitabine-resistant L1210-10K cell line retained much lower amounts of [^3H]D-FAC in contrast to the gemcitabine-sensitive L1210 parental cell line (FIG. 14A). […]
Each cell type was incubated separately with each of the following: [^18F]L-FAC, and [^18F]-CA, and the positive control [^18F]D-FAC. […] Following successive washes, intracellular radioactivity was measured by scintillation counting to obtain the result shown in FIG. 17A.

The test system of test [2] is T lymphocytes from pmel-1 T cell receptor (TCR) transgenic mice. The test can be described thus: retention of ^3H-labeled nucleoside analogs in naïve and proliferating primary T cells. It is filed as cell-based, mouse. As to the method:
In order to identify candidates for PET probes that can distinguish between activated T cells and non-activated, naïve T cells, we conducted a radioactive uptake assay, the results of which are shown in FIG. 1. […] These measurements were performed after incubating cells with radioactive compounds for 1 hr and performing successive washes to remove unincorporated probes. […] For example, we identified compounds #1 through #15 (see FIG. 2A for chemical structures) as PET probe candidates useful for detecting activated T cells. FIG. 2A presents substrates of dCK labeled with the ^18F positron emitting radioisotope.
T lymphocytes from pmel-1 T cell receptor (TCR) transgenic mice were stimulated ex vivo using a melanoma antigen (1 micromolar hgp 10025-33). These cells were then cultured for radioactive uptake and kinase assays that were performed 72 hours post-stimulation. […] The plate was then washed 5 times with media containing 5% fetal calf serum (FCS) by using the Millipore Vacuum Manifold (Billerica, Mass.); the amount of incorporated probe was measured by scintillation counting using the PerkinElmer Microbeta (Waltham, Mass.). […]
FIG. 1 identifies fluorinated deoxycytidine analogs retained in activated versus naive T lymphocytes and incorporated into DNA. […] Following successive washes, intracellular radioactivity was measured by scintillation counting. […]

The test system of test [3] is L1210 murine leukemia cells (dCK^+). In words: radioactive tracer uptake assay, L1210 parental cells. It is filed as cell-based. From the text:
(§1) To evaluate whether [^18F]D-FAC PET can determine resistance to gemcitabine and Ara-C, we used a previously described experimental model based on the L1210 murine leukemia cells and their gemcitabine/Ara-C resistant 10K derivatives^20. The molecular defect responsible for resistance in the L1210 10K cells is loss of dCK expression due to a genetic modification of chromosome 5 in the 3′ region of the dCK gene. The 10K cell line was derived by exposing the parental L1210 cells to increasing concentrations of gemcitabine^20; before experiments, we confirmed that L1210 10K cells lack expression of dCK at the protein level (FIG. 13). Thus, to determine whether D-FAC retention correlates with gemcitabine resistance in these cells, we performed radioactive tracer uptake assays using [^3H]D-FAC with [^3H]-FLT used as a negative control. We observed that the gemcitabine-resistant L1210-10K cell line retained much lower amounts of [^3H]D-FAC in contrast to the gemcitabine-sensitive L1210 parental cell line (FIG. 14A). In fact, [^3H]D-FAC uptake was 40-fold higher in dCK^+ cells compared to cells lacking dCK activity (dCK^+=1288 fmols/1×10^5 cells; dCK-=34 fmols/1×10^5 cells; p<0.001). In contrast, [^3H]FLT uptake was indistinguishable between these cell lines. FIG. 14B presents a [^3H]D-FAC kinase assay with the L1210 cell lines using [^3H]D-FAC as a substrate (1 microgram protein/reaction). In dCK positive cells shown in FIG. 14B, D-FAC phosphorylation was 52-fold higher than in dCK deficient cells (dCK^+=62 fmols; dCK^−=1.2 fmols; p=0.028). Reintroduction of dCK into the L1210-10K cells restored [^18F]D-FAC uptake and phosphorylation (FIG. 14), thus further confirming the critical role of this nucleoside kinase in regulating D-FAC metabolism.
(§2) Each cell type was incubated separately with each of the following: [^18F]L-FAC, and [^18F]-CA, and the positive control [^18F]D-FAC. The cells were incubated with [^18F]L-FAC, [^18F]-CA, and [^18F]D-FAC for 1 hour. Following successive washes, intracellular radioactivity was measured by scintillation counting to obtain the result shown in FIG. 17A.

For test [4], the system named is deoxycytidine kinase (dCK). In words: kinase assay with L1210 cell line lysates. It counts as biochemical, murine. The settings on record: dCK^− cells; 1 microgram protein/reaction.
Excerpt: as §1, §2
(§3) Lysates from L1210 wildtype (WT) and dCK deficient (10K) cells were incubated for 20 minutes with [^18F]L-FMAC; phosphorylated products were measured by scintillation counting.

For test [5], the target named is T1, deoxycytidine kinase (dCK) (Mus musculus, UniProt P43346).
T1 construct: endogenous in cells; host or cells: L1210 murine leukemia cells (wild type), whole-cell lysate; L1210-10K (dCK-deficient) as negative control
T1 sequence (P43346 whole entry): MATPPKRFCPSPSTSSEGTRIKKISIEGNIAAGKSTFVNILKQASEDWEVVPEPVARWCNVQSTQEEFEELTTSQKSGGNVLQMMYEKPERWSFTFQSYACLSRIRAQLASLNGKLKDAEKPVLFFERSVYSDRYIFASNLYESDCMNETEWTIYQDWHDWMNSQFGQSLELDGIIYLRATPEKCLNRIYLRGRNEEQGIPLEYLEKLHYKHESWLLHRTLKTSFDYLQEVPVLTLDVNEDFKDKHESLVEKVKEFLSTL
In words: kinase assay with L1210 cell line lysates. It is filed as biochemical, murine.
Excerpt: as §1, §2, §3

Test [6] has as its system NIH3T3 fibroblasts engineered to overexpress nucleoside kinases (dCK) and the nucleoside transporter SLC29A1. The test can be described thus: [^3H]D-FAC uptake in engineered NIH3T3 fibroblasts. It counts as cell-based.

Take `Nc1ccn(C2O[C@H](CO)[C@@H](O)[C@@H]2F)c(=O)n1` (stereo partly drawn) [[^3H]D-FAC, 1-(2′-deoxy-2′-fluoro-arabinofuranosyl) cytosine]: the uptake in test [1] stood at 34 fmols/1×10^5 cells; in test [3] (dCK^+ cells), 1288 fmols/1×10^5 cells. Further, the “incorporation into DNA of proliferating T cells” value in test [2] is “incorporated in the DNA”. Further, in test [3] (p<0.001), the “uptake in dCK^+ cells compared to cells lacking dCK activity” value stood at 40 fold. Also, the phosphorylation is 1.2 fmols in test [4] and 62 fmols in test [5] (dCK^+ cells, 1 microgram protein/reaction). The “phosphorylation in dCK positive cells versus dCK deficient cells” value in test [5] (p=0.028) is 52 fold. In test [6], the “uptake in cells overexpressing dCK and SLC29A1” value was “increased uptake”.
